Data: paper PMC12415213, “A genome-scale drug discovery pipeline uncovers therapeutic targets and a unique p97 allosteric binding site in Schistosoma mansoni” (Proceedings of the National Academy of Sciences of the …, 2025)
“Also recorded” adds a separate entry of the source. Like-named read-outs stand apart in the source and are kept apart here.

How the values were obtained:
adult S. mansoni [1] = experiment: Single-concentration (10 μM) treatment of adult worms, attachment and morphology; type: cell-based, Schistosoma mansoni; conditions: in vitro culture
Experimental: (§1) DMSO). All selected compounds were obtained from commercial vendors (Medchemexpress, Selleck Chemicals, Sigma-Aldrich, ApexBio, Tocris, Santa Cruz Biotechnology, and Cayman Chemical Company) (Dataset S4) with […]
(§2) the activity of the desired compounds. Roughly 5 adult worm pairs were placed in 3mL Basch medium in a 12-well culture vessel, and incubated at 37° C, 5% CO2 for the length of the experiment. Compound was administered at D0, D1, and D2, media and drug refreshed every 24 hr. Worms were then allowed to remain in culture until D5, where a final assessment of worm attachment to tissue culture substate was made by light microscopy.
Observations on movement and morphology were also recorded. A negative control (0.1% DMSO) and positive control (PZQ; 10 µM in 0.1% DMSO) were included in each experiment, and each experiment was repeated in triplicate for validation. […]

[2] = system: K48 polyubiquitinated proteins in adult S. mansoni; experiment: Western blot of K48 polyubiquitinated proteins in lysate of drug-treated worms; type: cell-based, Schistosoma mansoni; conditions: adult worm lysate after 48 h of treatment
Experimental: as §1
the activity of the desired compounds. Roughly 5 adult worm pairs were placed in 3mL Basch medium in a 12-well culture vessel, and incubated at 37° C, 5% CO2 for the length of the experiment. […]
(§3) For drug treatment studies, 10 male adult worms (single or paired with females) were supplemented with either 0.1% DMSO or inhibitor (0.1% DMSO final). For all experiments assessing on-target effects of potential parasite […]
(§4) After 48 hr, male parasites were separated […]
(§5) further processing. Male worm samples were homogenized with a pestle in 50 µL lysis buffer containing 2X […]
(Roche, cOmplete Mini, EDTA-free Tablets) and 10 mM DTT. The lysates were then sonicated on high for 5 min (30 sec on, 30 sec off) using a Bioruptor UCD-200. Lysates were centrifuged for 5 min at 10,000 g to remove […]
debris. Total protein was measured using the Detergent Compatible Bradford Assay (Pierce). 50 µg of protein samples denatured in SDS Sample buffer (95°C for 5 min) were separated on a Bio-Rad 4-20% TGX Stain-Free gel along with Precision Plus Protein Dual Color Standards (Bio-Rad) as a marker. Proteins were then transferred to a nitrocellulose membrane (Bio-Rad). The membrane was blocked in a 1:5 solution of Li-Cor Odyssey Blocking buffer in PBST for 1 hr before being immunoblotted overnight at 4°C with 1:500 K48-linkage Specific […]
(1:10,000) (Developmental Studies Hybridoma Bank, JLA20) diluted in a 1:5 solution of Li-Cor Odyssey Blocking buffer in PBST. The membrane was washed 3x in TBST and then incubated in 1:5 Li-Cor Odyssey […]
in TBST 3x before being imaged on a LiCor Odyssey Infrared Imager. […]

HepG2 cells = experiment: HepG2 cytotoxicity assay (Cell Titer Glo 2.0); type: cell-based, Homo sapiens; conditions: 72 h
adult S. mansoni [3] = experiment: Dose-response of compounds on adult worms (attachment to culture substrate, EC50); type: cell-based, Schistosoma mansoni
Experimental: as §1, §2
Observations on movement and morphology were also recorded. A negative control (0.1% DMSO) and positive control (PZQ; 10 µM in 0.1% DMSO) were included in each experiment, and each experiment was repeated in triplicate for validation. For compounds that caused complete detachment in replicate experiments, the treatment was expanded to three concentrations (10 µM, 5 µM, and 1 µM) following the same treatment schedule and controls as detailed above.
Each titration experiment was performed in triplicate according to the treatment regimen described above, using DMSO and PZQ as appropriate controls. Morphologies and motility were assessed by light microscopy, and dose-response curves were calculated using the primary readout of parasite attachment to tissue culture substrate in GraphPad Prism.
as §3, §4, §5
(Roche, cOmplete Mini, EDTA-free Tablets) and 10 mM DTT. The lysates were then sonicated on high for 5 min (30 sec on, 30 sec off) using a Bioruptor UCD-200. […]
Compounds were tested from 100 μM – 1 nM. Values were calculated using Prism.

adult S. mansoni [4] = system: adult S. mansoni; set-up: method as in PMID 32973031; conditions: adult parasites; cited from earlier work
H. sapiens p97 (P55072) = molecular target: T1, H. sapiens p97 (P55072) (Homo sapiens, UniProt P55072); experiment: Kinase-Glo ATP consumption assay, recombinant H. sapiens p97; type: biochemical; conditions: 100 μM to 1 nM
T1 construct: purified recombinant full-length (1-806aa) H; 6xHis (N); made in house; host or cells: E. coli BL21 (DE3)
T1 sequence (P55072 whole entry): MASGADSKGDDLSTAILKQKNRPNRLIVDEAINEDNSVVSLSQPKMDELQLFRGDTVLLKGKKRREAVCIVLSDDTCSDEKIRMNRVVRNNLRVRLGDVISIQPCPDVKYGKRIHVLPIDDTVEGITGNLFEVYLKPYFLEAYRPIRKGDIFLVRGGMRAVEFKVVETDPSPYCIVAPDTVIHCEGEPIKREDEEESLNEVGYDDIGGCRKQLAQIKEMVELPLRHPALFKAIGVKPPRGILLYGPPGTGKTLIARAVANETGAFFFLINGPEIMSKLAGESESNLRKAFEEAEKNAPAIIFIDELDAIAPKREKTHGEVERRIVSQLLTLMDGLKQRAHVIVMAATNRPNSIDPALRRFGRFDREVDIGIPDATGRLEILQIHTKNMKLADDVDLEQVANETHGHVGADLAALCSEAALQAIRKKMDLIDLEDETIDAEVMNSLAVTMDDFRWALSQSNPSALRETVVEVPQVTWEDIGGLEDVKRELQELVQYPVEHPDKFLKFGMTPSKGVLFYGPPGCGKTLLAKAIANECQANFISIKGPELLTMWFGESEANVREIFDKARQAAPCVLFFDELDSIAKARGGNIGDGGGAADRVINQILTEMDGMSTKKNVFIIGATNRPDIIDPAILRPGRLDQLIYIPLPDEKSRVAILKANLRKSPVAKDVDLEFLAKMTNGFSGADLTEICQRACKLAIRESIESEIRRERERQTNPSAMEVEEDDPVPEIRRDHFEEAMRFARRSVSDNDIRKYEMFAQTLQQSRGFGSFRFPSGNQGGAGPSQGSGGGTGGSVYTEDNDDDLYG

[5] = molecular target: S. mansoni p97 (Smp_018240) (Schistosoma mansoni, UniProt G4M0P7); type: biochemical
S. mansoni p97 (Smp_018240), sequence (G4M0P7 entry or part of it): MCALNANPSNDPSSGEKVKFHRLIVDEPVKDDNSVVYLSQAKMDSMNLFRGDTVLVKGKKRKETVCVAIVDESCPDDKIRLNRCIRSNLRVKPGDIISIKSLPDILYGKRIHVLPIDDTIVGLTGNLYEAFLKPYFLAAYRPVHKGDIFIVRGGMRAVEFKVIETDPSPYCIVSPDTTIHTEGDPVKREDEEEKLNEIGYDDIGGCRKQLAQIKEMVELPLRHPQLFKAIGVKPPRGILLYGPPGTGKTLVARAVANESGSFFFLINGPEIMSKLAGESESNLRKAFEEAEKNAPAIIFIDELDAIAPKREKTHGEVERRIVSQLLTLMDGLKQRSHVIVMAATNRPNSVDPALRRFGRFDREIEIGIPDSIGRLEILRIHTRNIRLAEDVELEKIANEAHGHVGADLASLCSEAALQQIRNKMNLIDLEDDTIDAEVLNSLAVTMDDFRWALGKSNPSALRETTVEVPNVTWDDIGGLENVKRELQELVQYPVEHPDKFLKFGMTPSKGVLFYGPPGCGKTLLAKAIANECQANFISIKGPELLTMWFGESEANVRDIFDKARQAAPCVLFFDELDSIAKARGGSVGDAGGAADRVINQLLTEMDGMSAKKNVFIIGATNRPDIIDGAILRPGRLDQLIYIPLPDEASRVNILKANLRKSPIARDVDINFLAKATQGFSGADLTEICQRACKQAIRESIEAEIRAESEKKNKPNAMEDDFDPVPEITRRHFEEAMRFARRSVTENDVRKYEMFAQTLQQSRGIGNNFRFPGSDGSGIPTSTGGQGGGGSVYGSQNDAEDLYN
Experimental: (§6) Evaluation of p97’s ATPase activity and compound potency
For manual ATP consumption assays, 1 µM p97 was incubated with 1% DMSO or inhibitor (1% DMSO final) in assay buffer [50 mM Tris (pH 7.5), 20 mM MgCl2, 1 mM EDTA, 0.5 mM tris(2-carboxyethyl)phosphine (TCEP)] for 5 minutes prior to the addition of 20 µM ATP in a 384-well plate for a total reaction volume of 10 µL, and a final concentration of 500nM enzyme and 10 µM ATP. The reaction was allowed to proceed for 50 minutes at room temperature before adding equivalent volume of Kinase-Glo Plus reagent (Promega), and a further incubation of 10 minutes in the dark. Luminescence was read using a BioTek Synergy 2 plate reader […]
1 μM, 500 nM, 100 nM, 50 nM, 10 nM, 5 nM, 1 nM, and 0 nM) in triplicate, maintaining a concentration of 1% […]
were calculated using GraphPad Prism. […]

[6] = system: S. mansoni vcp/p97 (Smp_018240); experiment: High-throughput screen of S. mansoni p97 (Kinase-Glo, single concentration); type: biochemical, Schistosoma mansoni; conditions: 10 μM compound, normalized to CB-5083 control
Experimental: as §6
For manual ATP consumption assays, 1 µM p97 was incubated with 1% DMSO or inhibitor (1% DMSO final) in assay buffer [50 mM Tris (pH 7.5), 20 mM MgCl2, 1 mM EDTA, 0.5 mM tris(2-carboxyethyl)phosphine (TCEP)] for 5 minutes prior to the addition of 20 µM ATP in a 384-well plate for a total reaction volume of 10 µL, and a final concentration of 500nM enzyme and 10 µM ATP. The reaction was allowed to proceed for 50 minutes at room temperature before adding equivalent volume of Kinase-Glo Plus reagent (Promega), and a further incubation of 10 minutes in the dark. […]
High-throughput screening (HTS) assay
Kinase-Glo (Promega, part K1214) was purchased from Promega. Microtiter plates (384 wells) were purchased from Perkin Elmer. All chemicals included in the UTSW library were sourced from commercial sources […]
TimTec (500)] or UT Southwestern chemists (https://www.utsouthwestern.edu/research/core-facilities/high- […]
throughput-screening/libraries/). […]
concentration of 10 µM (0.2% DMSO). Luminescence was read by EnVision multimode plate reader (Perkin-Elmer). Assay conditions were consistent between manual and high-throughput assays [10 µM ATP, 50 mM Tris (pH 7.5), 20 mM MgCl2, 1 mM EDTA, 0.5 mM tris(2-carboxyethyl)phosphine (TCEP)]. The plates were then incubated for 50 min at room temperature before addition of Kinase-Glo reagent and further incubation in the dark for 10 minutes before reading luminescence. […]
were obtained to determine activity of compounds on the enzyme. […]

[7] = recombinant full-length enzyme, Kinase-Glo
[8] = recombinant full-length enzyme, Kinase-Glo, 100 μM to 1 nM
[9] = recombinant Hsp97, Kinase-Glo, NA = no notable effect on the enzyme at tested concentrations, >100 = IC50 predicted above 100 μM or maximal inhibition not achieved
[10] = H. sapiens p97 IC50 versus S. mansoni p97 IC50

What does the source list for CC1(C)C(N(O)C(=O)Nc2ccc(Cl)cc2)N(c2ccc(Cl)cc2)C(=O)N1CC(=O)N/N=C/C=C/c1ccc([N+](=O)[O-])o1 (stereo not drawn) [Eeyarestatin I, reference compound]?
phenotype of adult worms after treatment (adult S. mansoni [1]): effective; accumulation of K48 polyubiquitinated proteins by western blot [2]: did not see significant increases in K48 abundance

What does the source list for Cc1cc2c(C(N)=O)cccc2n1-c1nc2c(c(NCc3ccccc3)n1)COCC2 [CB-5083]?
GI50 (HepG2 cells; 50% growth inhibition normalized to time = 0): 310 nM; IC50 (HepG2 cells; 50% growth inhibition relative to control): 410 nM; EC50 (adult S. mansoni [3]; fraction of worms attached after 72 h drug treatment, refreshed every 24 h, kept until D5, 50 μM - 10 nM, read-out: S. mansoni EC50 (μM) on adult parasites): 0.36 µM; concentration leading to parasite death in vitro (adult S. mansoni [4]): submicromolar concentrations; accumulation of K48 polyubiquitinated proteins by western blot [2]: accumulation of proteins targeted for proteasome-mediated degradation

Which results are given for CC(C)N1CCN(CCNC2CCN(c3cccc(-c4cc5cc(F)ccc5[nH]4)c3)CC2)CC1 [UPCDC-30245, reference compound]?
phenotype of adult worms after treatment (adult S. mansoni [1]): effective; IC50 (H. sapiens p97 (P55072); [7]): 970 ± 67 nM; accumulation of K48 polyubiquitinated proteins by western blot [2]: did not see significant increases in K48 abundance; selectivity between schistosome and human p97 [5]: selective in favor of the human enzyme; IC50 [5, 8]: 4100 nM

With COc1cccc2c(NCc3ccccc3)nc(-n3c(N)nc4ccccc43)nc12 [ML240, reference compound] as the compound, how does the “phenotype of adult worms after treatment” value (adult S. mansoni [1]) read?
Its value is “killed parasites quickly”.

And the IC50 (H. sapiens p97 (P55072); [7])?
The IC50 was 330 ± 61 nM.

What about the “accumulation of K48 polyubiquitinated proteins by western blot” value [2] of the same compound?
Its value is “did not observe the same accumulation”.

What about the “Fold Selectivity (parasite enzyme over human enzyme)” value [5] of the same compound?
Its value is “~ fivefold”.

And the IC50 [5, 8]?
Its IC50 is 66 ± 9.7 nM.

Which “phenotype of adult worms after treatment” value (adult S. mansoni [1]) does the source give for O=C(C#Cc1ccccc1)Nc1ccc2oc(-c3ccncc3)nc2c1 [Compound 242] here?
The value was “led to death in adult parasites; also recorded: ultimately leading to their death”.

What about the IC50 (H. sapiens p97 (P55072); [9]) of the same compound?
The IC50 was 12000 ± 310 nM.

What about the “Screen Inhibition (%)” value [6] of the same compound?
Its value is 47%.

What about the IC50 [5] of the same compound?
Its IC50 is 1400 ± 110 nM.

What about the “Fold Selectivity (parasite enzyme over human enzyme)” value [5, 10] of the same compound?
The value was 8.6 fold.

With Cc1cc(OCc2nnc(SC3CCCC3)n2-c2cccnc2)ccc1-c1ccc(S(C)(=O)=O)cc1 [NMS-873] as the compound, how does the “concentration leading to parasite death in vitro” value (adult S. mansoni [4]) read?
Its value is “submicromolar concentrations”.

And the “accumulation of K48 polyubiquitinated proteins by western blot” value [2]?
Its value is “accumulation of proteins targeted for proteasome-mediated degradation”.

What about the IC50 [5, 8] of the same compound?
The IC50 was 230 ± 75 nM.

With AGI-41998 as the compound, how does the EC50 (adult S. mansoni [3]; adult worms in vitro, tested 50 μM to 10 nM, readout attachment to culture substrate, read-out: EC50 of commercial inhibitors of human orthologs on adult parasites) read?
The EC50 was 0.71 µM.

Which results are given for c1ccc(CNc2nc(NCc3ccccc3)c3ccccc3n2)cc1 [DbeQ, reference compound]?
phenotype of adult worms after treatment (adult S. mansoni [1]): activity on the worms; IC50 (H. sapiens p97 (P55072); [7]): 910 ± 390 nM; accumulation of K48 polyubiquitinated proteins by western blot [2]: did not observe the same accumulation; IC50 [5, 8]: 12000 nM

Which EC50 (adult S. mansoni [3]; read-out: EC50 of commercial inhibitors of human orthologs on adult parasites) does the source give for AG-270 here?
Its EC50 is 0.18 µM.

What does the source list for O=C(C#Cc1ccncc1)Nc1ccc2oc(-c3ccccn3)nc2c1 [Compound 739]?
phenotype of adult worms after treatment (adult S. mansoni [1]): death of the parasites; IC50 (H. sapiens p97 (P55072); [9]): 320 ± 26 nM; accumulation of K48 polyubiquitinated proteins by western blot [2]: on-target activity by western blot; Fold Selectivity (parasite enzyme over human enzyme) [5, 10]: 2.1 fold; IC50 [5, 8]: 150 nM
